Laboratory results: patent US4808584A, “Quinolinecarboxylic acid derivatives and antibacterial agent containing the same” (Kanebo, Ltd., priority 1987, dated 1989)
Structures can show the parent of a compound that is named as a salt.

Experiments:
[1] = tested on: Staphylococcus aureus IID 803; test: Effect on treatment of general infectious disease; type: in vivo, ddY male mice; details: IID803, 168 h, S. aureus IID 803, 1.0×10^6 CFU/mouse i.p., oral one hour after infection, survival after one week
Experimental: Staphylococcus aureus IID 803 (1.0×10^6 CFU/mouse)
(§1) The test microorganisms were subjected to standing culture in Trypto-Soya Agar "Nissui" (made by Nissui Seiyaku K.K., Japan) at 37° C. for 16 to 18 hours. The culture was then diluted with PBS (Dulbecco's phosphate buffered saline) and mixed with an equivalent amount of 10% (w/v) Mucin (BACTO MUCIN BACTERIOLOGICAL, made by Difco Co.) to prepare a microorganism solution. The thus prepared microorganism solution (0.5 ml each) was intraperitoneally innoculated to ddY male mice (4 weeks age, weighing 20-22 g, 5 mice in each group), to infect the animals. One hour after the infection, the compound (B) of the present invention dissolved in sterilized distilled water or ofloxacin suspended in 0.5% (w/v) aqueous sodium carboxymethyl cellulose solution was orally adiministered to mice.
(§2) The mice were daily observed for one week, and from the survival number of mice after one week, the 50% effective dose (ED50) was calculated by Weil method.

[2] = tested on: methicillin resistant Staphylococcus aureus; test: Minimum inhibitory concentration against clinically isolated methicillin resistant Staphylococcus aureus; type: cell-based
Experimental: The compound (B) was dissolved in sterilized distilled water, and ofloxacin in 0.1N aqueous potassium hydroxide, to prepare a solution of 5000 μg/ml in concentration each. The above solutions were then diluted with sterilized distilled water to prepare a standard solution with a concentration of the test compound: 1000 μg/ml each. The test was carried out by a method approved by Japan Society of Chemotherapy (ibidem) to measure minimum inhibitory concentration (MIC) against 54 strains of clinically isolated methicillin resistant Staphylococcus aureus, from which there were calculated a range of MIC (MICrange) of the test compound against these resistant strains, a minimum concentration for inhibiting the growth of the strains by 50% (MIC50) and a minimum concentration for inhibiting the growth of the strains by 90% (MIC90).

[3] = tested on: Pseudomonas aeruginosa E-2; test: Effect on treatment of general infectious disease; type: in vivo, ddY male mice; details: E2, 168 h, P. aeruginosa E-2, 1.6×10^4 CFU/mouse i.p., oral one hour after infection, survival after one week
Experimental: Pseudomonas aeruginosa E-2 (1.6×10^4 CFU/mouse)
as §1, §2

[4] = tested on: E. coli KC-14; test: Effect on treatment of infectiousness of the genito-urinary tract; type: in vivo, ICR female mice; details: Escherichia coli, KC14, 48 h; E. coli KC-14, 5.6×10^5 CFU/mouse into urinary bladder; oral; not more than 10^4 living bacteria/1 g of kidney regarded as effective
Experimental: 2. Test microorganism and inoculum size E. coli KC-14 (5.6×10^5 CFU/mouse) 3. Method:
A microorganism solution (0.1 ml) prepared in the same manner as described in Experiment 3 was introduced into urinary bladder through urinary tract of ICR female mice (5 weeks age, weighing 20 to 22 g, 5 mice in each group), and then urinary meatus was clasped with clip for 4 hours to infect the animals. After taking off the clip, the compound (B) of the present invention dissolved in sterilized distilled water or ofloxacin suspended in 0.5% aqueous sodium carboxymethyl cellulose solution was orally administered to mice. Two days after the infection, mice kidneys were taken out and weighed, to which PBS (Dulbecco's phosphate buffered saline) was added and the mixture was homogenized. The homogenate was then diluted with PBS and inoculated onto a plate of modified Drigalski Agar (BTB lactose agar "Nissui", made by Nissui Seiyaku K.K., Japan) and cultured at 37° C. for 18 hours. The number of the colonies of infectious bacteria grown on the plate was counted. The number of living bacteria per 1 g of kidney was calculated from the number of colonies and the kidney weight. The living bacteria number/1 g of kidney of not more than 10^4 was regarded as effective and an effective dose for 50% mice (ED50) was calculated by Weil method.

[5] = tested on: Klebsiella pneumoniae PCI 602; test: Minimum inhibitory concentration (MIC); type: cell-based; details: Klebsiella pneumoniae, PCI602, Klebsiella pneumoniae PCI 602, Gram -; read-out: Minimum inhibitory concentration (MIC)
Experimental: (§3) The compounds of the present invention (A, C, E, F, G, H and I) and ofloxacin as control were dissolved in 0.1N aqueous potassium hydroxide to prepare a solution of 5000 μg/ml in concentration. The compounds of the present invention (B, D and J) were dissolved in sterilized distilled water to prepare a solution of 5000 μg/ml in concentration. Each solution was diluted with sterilized distilled water to prepare a standard solution with a concentration of each test compound: 1000 μg/ml. The test was carried out by a method approved by Japan Society of Chemotherapy [cf. Chemotherapy, 29, 76-79 (1981)(TOKYO)].

[6] = tested on: Pseudomonas aeruginosa IFO 3445; test: Minimum inhibitory concentration (MIC); type: cell-based
Experimental: as §3

[7] = tested on: Serratia marcescens IAM 1184; test: Minimum inhibitory concentration (MIC); type: cell-based
Experimental: as §3

[8] = tested on: Streptococcus faecalis IID 682; test: Minimum inhibitory concentration (MIC); type: cell-based
Experimental: as §3

[9] = tested on: ddY male mice; test: Acute toxicity (LD50); type: in vivo; details: oral, ddY male mice fasted for 18 hours, Weil method
Experimental: The compound (B) of the present invention was dissolved in sterilized distilled water and the solution was orally administered to ddY male mice (5 weeks age, weighing 20 to 25 g, 5 mice in each group), which had been fasted for 18 hours.

[10] = tested on: Escherichia coli KC-14; test: Effect on treatment of general infectious disease; type: in vivo, ddY male mice; details: KC14, 168 h, E. coli KC-14, 1.2×10^4 CFU/mouse i.p., oral one hour after infection, survival after one week
Experimental: Escherichia coli KC-14 (1.2×10^4 CFU/mouse)
as §1, §2

[11] = tested on: Proteus vulgaris OX-19; test: Minimum inhibitory concentration (MIC); type: cell-based; details: OX19; Proteus vulgaris OX-19, Gram -; read-out: Minimum inhibitory concentration (MIC)
Experimental: as §3

[12] = tested on: Salmonella typhimurium IID 971; test: Minimum inhibitory concentration (MIC); type: cell-based; details: Salmonella enterica, read-out: Minimum inhibitory concentration (MIC)
Experimental: as §3

[13] = tested on: Enterobacter cloacae 963; test: Minimum inhibitory concentration (MIC); type: cell-based; details: Enterobacter cloacae 963, Gram -
Experimental: as §3

[14] = tested on: Citrobacter freundii NIHJ 10018-68; test: Minimum inhibitory concentration (MIC); type: cell-based; details: NIHJ10018; Citrobacter freundii NIHJ 10018-68, Gram -
Experimental: as §3

[15] = tested on: Shigella sonnei EW-33; test: Minimum inhibitory concentration (MIC); type: cell-based; details: EW33; Shigella sonnei EW-33, Gram -
Experimental: as §3

[16] = tested on: Enterobacter aerogenes ATCC 13048; test: Minimum inhibitory concentration (MIC); type: cell-based; details: Klebsiella aerogenes, ATCC13048, Enterobacter aerogenes ATCC 13048, Gram -
Experimental: as §3

[17] = tested on: Pseudomonas aeruginosa E-2; test: Minimum inhibitory concentration (MIC); type: cell-based; details: E2; Pseudomonas aeruginosa E-2, Gram -
Experimental: as §3

[18] = tested on: Staphylococcus epidermidis IAM-1296; test: Minimum inhibitory concentration (MIC); type: cell-based; details: Staphylococcus epidermidis, IAM1296, Staphylococcus epidermidis IAM-1296, Gram +
Experimental: as §3

[19] = tested on: Proteus mirabilis IFO 3849; test: Minimum inhibitory concentration (MIC); type: cell-based; details: IFO3849; Proteus mirabilis IFO 3849, Gram -
Experimental: as §3

[20] = tested on: Pseudomonas aeruginosa NCTC 10490; test: Minimum inhibitory concentration (MIC); type: cell-based; details: Pseudomonas aeruginosa, NCTC10490, Pseudomonas aeruginosa NCTC 10490, Gram -
Experimental: as §3

[21] = tested on: Bacillus subtilis ATCC 6633; test: Minimum inhibitory concentration (MIC); type: cell-based; details: ATCC6633; Bacillus subtilis ATCC 6633, Gram +; read-out: Minimum inhibitory concentration (MIC)
Experimental: as §3

[22] = tested on: Staphylococcus aureus FDA 209P JC-1; test: Minimum inhibitory concentration (MIC); type: cell-based; details: FDA209P; Staphylococcus aureus FDA 209P JC-1, Gram +
Experimental: as §3

[23] = tested on: Staphylococcus aureus IID 803; test: Minimum inhibitory concentration (MIC); type: cell-based; details: IID803; Staphylococcus aureus IID 803, Gram +; read-out: Minimum inhibitory concentration (MIC)
Experimental: as §3

[24] = tested on: Micrococcus luteus ATCC 9341; test: Minimum inhibitory concentration (MIC); type: cell-based; details: ATCC9341; Micrococcus luteus ATCC 9341, Gram +
Experimental: as §3

[25] = tested on: Acinetobacter calcoaceticus AC 54; test: Minimum inhibitory concentration (MIC); type: cell-based; details: Acinetobacter calcoaceticus, AC54, Acinetobacter calcoaceticus AC 54, Gram -
Experimental: as §3

[26] = tested on: Escherichia coli KC-14; test: Minimum inhibitory concentration (MIC); type: cell-based; details: KC14; Escherichia coli KC-14, Gram -
Experimental: as §3

[27] = tested on: Escherichia coli NIHJ JC-2; test: Minimum inhibitory concentration (MIC); type: cell-based; details: NIHJJC2; Escherichia coli NIHJ JC-2, Gram -
Experimental: as §3

[28] = tested on: Morganella morganii IFO 3848; test: Minimum inhibitory concentration (MIC); type: cell-based; details: IFO3848; Morganella morganii IFO 3848, Gram -
Experimental: as §3

Molecule `CN1CCN(c2c(F)cc3c(=O)c(C(=O)O)c4scc5n4c3c2OC5)CC1` [Compound (B), 9,1-Epoxymethano-7-fluoro-8-(4-methyl-1-piperazinyl)-5-oxo-5H-thiazolo[3,2-a]quinoline-4-carboxylic acid.hydrochloride] has an ED50 [1] of 8.1 mg/kg, an MIC ([2]; 54 strains of clinically isolated methicillin resistant Staphylococcus aureus) of 0.1 to 0.39 mg/L and an MIC50 ([2]; Staphylococcus aureus, minimum concentration for inhibiting the growth of the strains by 50%, 54 strains) of 0.2 mg/L. It also gave an MIC90 ([2]; Staphylococcus aureus, minimum concentration for inhibiting the growth of the strains by 90%, 54 strains) of 0.2 mg/L, an ED50 [3] of 17.7 mg/kg and an ED50 [4] of 21.7 mg/kg. For the same molecule, the MIC [5] was 0.025 mg/L, the “Minimum inhibitory concentration (MIC)” value ([6]; Pseudomonas aeruginosa IFO 3445, Gram -) was 1.56 mg/L and the “Minimum inhibitory concentration (MIC)” value ([7]; Serratia marcescens IAM 1184, Gram -) was 0.39 mg/L. The “Minimum inhibitory concentration (MIC)” value ([8]; Streptococcus faecalis IID 682, Gram +) was 0.78 mg/L, the LD50 [9] was 1231 mg/kg and the ED50 [10] was 1 mg/kg.

Work on `CCN1CCN(c2c(F)cc3c(=O)c(C(=O)O)c4scc5n4c3c2OC5)CC1` [Compound (J), 9,1-Epoxymethano-7-fluoro-8-(4-ethyl-1-piperazinyl)-5-oxo-5H-thiazolo[3,2-a]quinoline-4-carboxylic acid.hydrochloride.1/2hydrate] yielded an MIC [11] of 0.05 mg/L, an MIC [12] of 0.05 mg/L and an MIC [13] of 0.1 mg/L. It also gave an MIC [14] of 0.39 mg/L, an MIC [15] of 0.1 mg/L and an MIC [16] of 0.1 mg/L. For the same molecule, the MIC [17] was 1.56 mg/L, the MIC [18] was 0.39 mg/L and the MIC [5] was 0.025 mg/L. For the same molecule, the MIC ([6]; Pseudomonas aeruginosa, IFO3445, Pseudomonas aeruginosa IFO 3445, Gram -) was 3.13 mg/L, the MIC ([7]; Serratia marcescens, IAM1184, Serratia marcescens IAM 1184, Gram -) was 0.39 mg/L and the MIC [19] was 0.39 mg/L. It also gave an MIC ([8]; Enterococcus faecalis, IID682, Streptococcus faecalis IID 682, Gram +) of 0.78 mg/L, an MIC [20] of 0.78 mg/L and an MIC [21] of 0.1 mg/L. For the same molecule, the MIC [22] was 0.2 mg/L, the MIC [23] was 0.2 mg/L and the MIC [24] was 3.13 mg/L. The MIC [25] was 0.1 mg/L, the MIC [26] was 0.1 mg/L and the MIC [27] was 0.1 mg/L. The MIC [28] was 0.1 mg/L.
